Experiments:
[1] = target: T1, Vasoactive intestinal polypeptide receptor 1 (Homo sapiens, UniProt P32241); format: cell membranes, Membrane; conditions: ht-29
T1 sequence (P32241 whole entry): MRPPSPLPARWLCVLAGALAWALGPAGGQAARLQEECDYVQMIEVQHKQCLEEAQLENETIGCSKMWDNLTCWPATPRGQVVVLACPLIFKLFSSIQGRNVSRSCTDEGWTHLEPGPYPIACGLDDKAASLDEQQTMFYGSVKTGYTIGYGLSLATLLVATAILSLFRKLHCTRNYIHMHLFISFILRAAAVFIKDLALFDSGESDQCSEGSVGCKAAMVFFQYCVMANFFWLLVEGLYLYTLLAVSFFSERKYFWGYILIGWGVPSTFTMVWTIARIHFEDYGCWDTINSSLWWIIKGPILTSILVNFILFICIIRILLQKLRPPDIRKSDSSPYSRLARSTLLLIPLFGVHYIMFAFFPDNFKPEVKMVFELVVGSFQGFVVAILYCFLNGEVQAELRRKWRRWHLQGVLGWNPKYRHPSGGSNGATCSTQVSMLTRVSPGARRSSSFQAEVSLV

Caspase-1 = target: T2, Caspase-1 (Homo sapiens, UniProt P29466); parameters: species or system Escherichia coli;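 further: Caspase-1 enzyme inhibition assay with a peptide substrate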
T2 sequence (P29466 whole entry): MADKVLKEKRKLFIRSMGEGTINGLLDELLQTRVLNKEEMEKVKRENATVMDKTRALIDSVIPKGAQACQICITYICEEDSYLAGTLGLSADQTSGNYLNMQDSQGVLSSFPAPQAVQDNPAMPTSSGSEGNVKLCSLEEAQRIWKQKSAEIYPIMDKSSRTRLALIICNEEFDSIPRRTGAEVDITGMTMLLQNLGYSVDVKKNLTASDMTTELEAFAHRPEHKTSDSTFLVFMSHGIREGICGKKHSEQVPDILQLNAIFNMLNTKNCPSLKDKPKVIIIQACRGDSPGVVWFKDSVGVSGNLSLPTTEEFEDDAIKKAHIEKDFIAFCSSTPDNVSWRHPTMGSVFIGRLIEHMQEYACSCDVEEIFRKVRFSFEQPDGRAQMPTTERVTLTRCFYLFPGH

[2] = target: T3, C-X-C chemokine receptor type 2 (Homo sapiens, UniProt P25025); format: cell membranes, CHO-K1, Membrane; conditions: cho-k1
T3 sequence (P25025 whole entry): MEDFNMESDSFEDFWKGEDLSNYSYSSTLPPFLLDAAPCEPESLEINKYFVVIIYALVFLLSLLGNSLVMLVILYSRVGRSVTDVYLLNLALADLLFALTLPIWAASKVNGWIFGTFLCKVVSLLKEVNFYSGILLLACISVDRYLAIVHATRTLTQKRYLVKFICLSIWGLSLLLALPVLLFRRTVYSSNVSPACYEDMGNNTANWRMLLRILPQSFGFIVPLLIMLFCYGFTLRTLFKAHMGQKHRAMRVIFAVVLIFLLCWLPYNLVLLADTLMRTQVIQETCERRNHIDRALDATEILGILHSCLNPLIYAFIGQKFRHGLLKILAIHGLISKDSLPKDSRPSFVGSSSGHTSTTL

[3] = target: Matrix metalloproteinase-9 (Homo sapiens, UniProt P14780); format: cell-based;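 further: inhibition of isolated MMP-9 enzyme activity toward a synthetic peptide substrate, from the DrugMatrix protease screening panel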
[4] = target: T4, Muscarinic acetylcholine receptor M5 (Homo sapiens, UniProt P08912); format: cell membranes, CHO-K1, Membrane
T4 sequence (P08912 whole entry): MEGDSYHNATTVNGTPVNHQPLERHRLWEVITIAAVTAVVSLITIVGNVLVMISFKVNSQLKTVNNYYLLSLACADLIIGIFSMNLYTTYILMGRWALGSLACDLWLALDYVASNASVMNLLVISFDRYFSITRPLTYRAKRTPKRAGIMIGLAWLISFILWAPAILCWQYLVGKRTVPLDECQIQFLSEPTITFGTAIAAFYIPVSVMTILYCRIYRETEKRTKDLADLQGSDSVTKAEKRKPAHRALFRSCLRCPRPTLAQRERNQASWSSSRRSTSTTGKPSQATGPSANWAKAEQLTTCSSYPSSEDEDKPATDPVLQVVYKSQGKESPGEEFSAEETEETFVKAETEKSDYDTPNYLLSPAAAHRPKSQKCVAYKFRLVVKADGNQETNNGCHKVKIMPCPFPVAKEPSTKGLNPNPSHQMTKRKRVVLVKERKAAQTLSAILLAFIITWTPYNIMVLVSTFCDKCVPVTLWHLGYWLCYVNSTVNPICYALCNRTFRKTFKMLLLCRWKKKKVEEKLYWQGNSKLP

Histamine H2 receptor = Histamine H2 receptor (Homo sapiens, UniProt P25021); format: cell membranes, CHO-K1, Membrane
Further: in other assays of this panel Not Active means under 50% inhibition at 10 µM.

Matrix metalloproteinase-9, sequence (P14780 whole entry): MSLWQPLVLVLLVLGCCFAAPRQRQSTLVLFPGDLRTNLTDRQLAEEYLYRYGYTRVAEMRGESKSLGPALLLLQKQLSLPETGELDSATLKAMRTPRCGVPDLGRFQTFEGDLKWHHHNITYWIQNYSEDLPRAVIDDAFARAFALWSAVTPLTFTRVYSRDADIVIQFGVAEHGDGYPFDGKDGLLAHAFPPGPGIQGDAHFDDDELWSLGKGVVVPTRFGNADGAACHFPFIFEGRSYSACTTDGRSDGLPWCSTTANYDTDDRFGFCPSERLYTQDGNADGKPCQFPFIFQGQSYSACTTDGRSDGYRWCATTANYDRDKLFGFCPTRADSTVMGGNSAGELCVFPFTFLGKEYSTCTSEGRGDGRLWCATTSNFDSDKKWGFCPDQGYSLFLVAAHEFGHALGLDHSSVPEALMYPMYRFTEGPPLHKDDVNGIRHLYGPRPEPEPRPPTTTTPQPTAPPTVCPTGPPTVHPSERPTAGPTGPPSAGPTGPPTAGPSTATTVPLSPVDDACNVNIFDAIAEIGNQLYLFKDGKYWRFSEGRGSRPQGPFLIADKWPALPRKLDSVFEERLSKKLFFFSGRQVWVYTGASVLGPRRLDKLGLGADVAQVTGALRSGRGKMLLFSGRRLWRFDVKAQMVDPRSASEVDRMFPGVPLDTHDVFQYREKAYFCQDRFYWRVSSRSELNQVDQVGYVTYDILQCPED
Histamine H2 receptor, sequence (P25021 whole entry): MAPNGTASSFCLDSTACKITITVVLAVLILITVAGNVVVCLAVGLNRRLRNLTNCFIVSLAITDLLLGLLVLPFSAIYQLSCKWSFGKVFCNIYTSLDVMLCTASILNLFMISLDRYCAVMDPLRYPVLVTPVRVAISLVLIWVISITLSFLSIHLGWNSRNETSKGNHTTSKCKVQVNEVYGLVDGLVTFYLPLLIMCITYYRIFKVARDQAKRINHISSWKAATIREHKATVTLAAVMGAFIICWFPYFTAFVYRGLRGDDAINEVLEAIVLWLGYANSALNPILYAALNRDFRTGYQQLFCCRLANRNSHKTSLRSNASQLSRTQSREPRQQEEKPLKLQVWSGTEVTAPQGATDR

| Compound | IC50 [1] | IC50 (Caspase-1) | IC50 [2] | IC50 [3] | IC50 ([4]; cho-k1) | IC50 (Histamine H2 receptor; cho-k1) | IC50 (Histamine H2 receptor; read-out: IC50) | Ki (Histamine H2 receptor; read-out: Ki) | IC50 ([4]; read-out: IC50) | Ki ([4]; read-out: Ki) | IC50 (Caspase-1; read-out: IC50) | Ki [1] | Ki (Caspase-1) | Ki [2] | Ki [3] | Ki ([4]; cho-k1) | Ki (Histamine H2 receptor; cho-k1) |
| --- | --- | --- | --- | --- | --- | --- | --- | --- | --- | --- | --- | --- | --- | --- | --- | --- | --- |
| C[C@]12CCC(=O)C[C@@H]1CC[C@@H]1[C@@H]2CC[C@]2(C)[C@@H](O)CC[C@@H]12 [STANOLONE] | Not Active | Not Active | Not Active | Not Active | Not Active | Not Active |  |  |  |  |  |  |  |  |  |  |  |
| CO[C@@]12[C@H](COC(N)=O)C3=C(C(=O)C(C)=C(N)C3=O)N1C[C@@H]1N[C@@H]12 [MITOMYCIN] | Not Active | Not Active | Not Active | Not Active | Not Active | Not Active |  |  |  |  |  |  |  |  |  |  |  |
| Cc1[nH]c(=O)c(C#N)cc1-c1ccncc1 [MILRINONE] | Not Active | Not Active | Not Active | Not Active | Not Active | Not Active |  |  |  |  |  |  |  |  |  |  |  |
| CC(Cl)(Cl)Cl [TRICHLOROETHANE] | Not Active | Not Active | Not Active | Not Active | Not Active | Not Active |  |  |  |  |  |  |  |  |  |  |  |
| CC[C@H](C)C(=O)O[C@H]1CCC=C2C=C[C@H](C)[C@H](CC[C@@H]3C[C@@H](O)CC(=O)O3)[C@H]21 [MEVASTATIN] | Not Active | Not Active | Not Active | Not Active | Not Active | Not Active |  |  |  |  |  |  |  |  |  |  |  |
| CC(=O)O[C@]1(C(C)=O)CC[C@H]2[C@@H]3C[C@H](C)C4=CC(=O)CC[C@]4(C)[C@H]3CC[C@@]21C [MEDROXYPROGESTERONE ACETATE] | Not Active | Not Active | Not Active | Not Active | Not Active |  | 27900 nM | 27500 nM |  |  |  |  |  |  |  |  |  |
| CC[C@@]1(O)C(=O)OCc2c1cc1n(c2=O)Cc2cc3c(CN(C)C)c(O)ccc3nc2-1 [TOPOTECAN] | Not Active | Not Active | Not Active | Not Active | Not Active | Not Active |  |  |  |  |  |  |  |  |  |  |  |
| CC#C[C@]1(O)CC[C@H]2[C@@H]3CCC4=CC(=O)CCC4=C3[C@@H](c3ccc(N(C)C)cc3)C[C@@]21C [MIFEPRISTONE] | Not Active | Not Active | Not Active | Not Active | Not Active | Not Active |  |  |  |  |  |  |  |  |  |  |  |
| Cc1cnc(NC(=O)C2=C(O)c3ccccc3S(=O)(=O)N2C)s1 [MELOXICAM] | Not Active | Not Active | Not Active | Not Active | Not Active | Not Active |  |  |  |  |  |  |  |  |  |  |  |
| O=[As][O-].[Na+] [SODIUM ARSENITE] | Not Active | Not Active | Not Active | Not Active | Not Active | Not Active |  |  |  |  |  |  |  |  |  |  |  |
| Cc1cccc(C)c1NC(=O)C(C)N (stereo not given) [TOCAINIDE] | Not Active | Not Active | Not Active | Not Active | Not Active | Not Active |  |  |  |  |  |  |  |  |  |  |  |
| COC(=O)Nc1nc2ccc(C(=O)c3ccccc3)cc2[nH]1 [MEBENDAZOLE] | Not Active | Not Active | Not Active | Not Active | Not Active | Not Active |  |  |  |  |  |  |  |  |  |  |  |
| CCOC(=O)C1=C(C)NC(C)=C(C(=O)OCC)C1c1ccccc1/C=C/C(=O)OC(C)(C)C [LACIDIPINE] | Not Active | Not Active | Not Active | Not Active | Not Active | Not Active |  |  |  |  |  |  |  |  |  |  |  |
| CC[C@H](C)[C@@H](CO[C@@H](Cc1ccccc1)C(=O)N[C@@H](CCS(C)(=O)=O)C(=O)OC(C)C)NC[C@@H](N)CS | Not Active | Not Active | Not Active | Not Active | Not Active | Not Active |  |  |  |  |  |  |  |  |  |  |  |
| CNCCCC12CCC(c3ccccc31)c1ccccc12 [MAPROTILINE] | Not Active | Not Active | Not Active | Not Active |  |  | 400 nM | 393 nM | 160 nM | 115 nM |  |  |  |  |  |  |  |
| O=C(c1ccccc1)c1ccc2n1CCC2C(=O)O (stereo not given) [KETOROLAC] | Not Active | Not Active | Not Active | Not Active | Not Active | Not Active |  |  |  |  |  |  |  |  |  |  |  |
| O=C(O)c1cc(/N=N/c2ccc(S(=O)(=O)Nc3ccccn3)cc2)ccc1O [SULFASALAZINE] | Not Active |  | Not Active | Not Active | Not Active | Not Active |  |  |  |  | 28800 nM |  |  |  |  |  |  |
| CC1(C)[C@H](C(=O)O)N2C(=O)C[C@H]2S1(=O)=O [SULBACTAM] | Not Active | Not Active | Not Active | Not Active | Not Active | Not Active |  |  |  |  |  |  |  |  |  |  |  |
| C1CCN2C[C@@H]3C[C@@H](CN4CCCC[C@@H]34)[C@H]2C1 [SPARTEINE] | Not Active | Not Active | Not Active | Not Active | Not Active | Not Active |  |  |  |  |  |  |  |  |  |  |  |
| LEAD(IV) ACETATE | Not Active | Not Active | Not Active | Not Active | Not Active | Not Active |  |  |  |  |  | Not Active | Not Active | Not Active | Not Active | Not Active | Not Active |
| CC(O)C(=O)O (stereo not given) [LACTIC ACID] | Not Active | Not Active | Not Active | Not Active | Not Active | Not Active |  |  |  |  |  |  |  |  |  |  |  |
